Patent US8754109B2 (Intermune, Inc., priority 2010, dated 2014)

Tests used:
[1] = Phase 1 open-label study: impact of CYP1A2 inhibition (fluvoxamine) and induction (smoking) on pirfenidone pharmacokinetics; format: in vivo, human; conditions: for effect of fluvoxamine co-administration on AUC0-∞: Day 11 vs Day 1, paired t-test; for Ratio of Day 11 AUC0-∞ to Day 1 AUC0-∞, Mean (SD) / Ratio of Day 11 AUC0-∞ to Day 1 AUC0-∞, Median (25th-75th): Day 11 with fluvoxamine; for AUC0-∞ Mean (SD) / AUC0-∞ Median (25th-75th): single 801-mg dose of pirfenidone, healthy subjects n = 51, plasma
Experimental: Fifty-four subjects were to be enrolled in two groups, consisting of 27 subjects who were smokers (Group 1) and 27 subjects who were nonsmokers (Group 2). Each group (smokers and nonsmokers) was to include a minimum of nine females and nine males, and attempts were to be made to enroll equal numbers of each sex in each group.
All pharmacokinetic (PK) analyses were conducted using population PK methods using Monte-Carlo parametric expectation maximization as implemented in the open-source software program S ADAPT 1.5.6 (Bauer et al., AAPS Journal 9 (1):E60-83, 2007). The structural model for the analysis was obtained from a preliminary population PK analysis.
If other subject characteristics (such as body size or age) were also associated with the ratio of AUC0-∞ on Day 11 to that on Day 1, the significance of these covariates was also tested.

CYP1A2 = CYP1A2 (Homo sapiens, UniProt P05177); experiment: in vitro experiments on pirfenidone metabolism by CYP isoforms; format: in vitro ADME
CYP1A2, sequence (P05177 whole entry, canonical isoform): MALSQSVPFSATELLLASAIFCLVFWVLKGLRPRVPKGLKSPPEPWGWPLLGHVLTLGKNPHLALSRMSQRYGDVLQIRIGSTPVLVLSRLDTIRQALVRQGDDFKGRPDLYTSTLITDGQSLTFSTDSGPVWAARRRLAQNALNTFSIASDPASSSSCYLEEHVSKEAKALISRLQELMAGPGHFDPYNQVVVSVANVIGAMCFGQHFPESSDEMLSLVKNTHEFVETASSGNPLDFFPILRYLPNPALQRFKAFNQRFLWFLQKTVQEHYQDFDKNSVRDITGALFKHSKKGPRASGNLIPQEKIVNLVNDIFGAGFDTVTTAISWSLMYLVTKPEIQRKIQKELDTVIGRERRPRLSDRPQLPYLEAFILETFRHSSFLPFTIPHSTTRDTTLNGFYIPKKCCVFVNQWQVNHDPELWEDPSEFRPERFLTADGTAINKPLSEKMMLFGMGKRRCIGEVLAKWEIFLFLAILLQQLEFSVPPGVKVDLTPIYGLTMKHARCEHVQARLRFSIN

[2] = system: multiple other CYPs (1A1, 2A6, 2B6, 2C8, 2C9, 2C18, 2C19, 2D6, 2E1, 2J2, 3A4, 3A5, 4A11, and 4F2); experiment: as above; format: in vitro ADME; conditions: each isoform
[3] = pirfenidone therapy, oral; cited from earlier work

SMILES | drop in AUC0-∞ in smokers after accounting for differences in BSA ([1]; Day 1 estimates, AUC0-∞ normalized to body surface area, multiple linear regression, smokers vs nonsmokers) [%] | effect of fluvoxamine co-administration on AUC0-∞ [1] | increase in Cmax after administration of fluvoxamine, on average ([1]; after administration of fluvoxamine) | exposure (AUC0-∞) times higher after fluvoxamine, on average ([1]; after ten days of dosing with fluvoxamine) [times] | decrease in pirfenidone exposure (AUC0-∞) in patients that concomitantly smoke, on average ([1]; compared to patients that do not smoke) | exposure (AUC0-∞) in patients who smoke as % of exposure in patients that didn't smoke, on average ([1]; smokers vs nonsmokers) | share of pirfenidone metabolism by CYP1A2 (CYP1A2) | share of pirfenidone metabolism by each of the other CYPs [2] [%] | incidence of most common adverse reactions (nausea, rash, dyspepsia, dizziness, vomiting, photosensitivity reaction, anorexia) [3] [%] | ratio of Cmax on Day 11 to the Cmax on Day 1, mean (95% CI) ([1]; Day 11 after fluvoxamine vs Day 1, all subjects) | Ratio of Day 11 AUC0-∞ to Day 1 AUC0-∞, Mean (SD) ([1]; Nonsmokers (N 25)) | Ratio of Day 11 AUC0-∞ to Day 1 AUC0-∞, Median (25th-75th) ([1]; Nonsmokers (N 25)) | Ratio of Day 11 AUC0-∞ to Day 1 AUC0-∞, Mean (SD) ([1]; Smokers (N 26)) | Ratio of Day 11 AUC0-∞ to Day 1 AUC0-∞, Median (25th-75th) ([1]; Smokers (N 26)) | AUC0-∞ Mean (SD) ([1]; Study Day 1: Pre-Fluvoxamine) | AUC0-∞ Median (25th-75th) ([1]; Study Day 1: Pre-Fluvoxamine) | AUC0-∞ Mean (SD) ([1]; Study Day 11: Post-Fluvoxamine) | AUC0-∞ Median (25th-75th) ([1]; Study Day 11: Post-Fluvoxamine)
Cc1ccc(=O)n(-c2ccccc2)c1 [Pirfenidone, 5-methyl-1-phenyl-2-(1H)-pyridone, reference compound] | ~50 | significant increase | two-fold | ~6 | about 50% | about 50% | approx. 48% | < 13 | > 10 | – | – | – | – | – | – | – | – | –
O=C(O)c1ccc(=O)n(-c2ccccc2)c1 [5-Carboxy-Pirfenidone, 5-carboxy-pirfenidone] | – | not a statistically significant effect | – | – | – | – | – | – | – | 0.369 (0.349-0.390) | 1.05 (0.114) | 1.03 (0.978-1.11) | 1.12 (0.0951) | 1.13 (1.04-1.19) | 29.3 (8.22) mg · hr/L | 26.9 (22.0-33.7) mg · hr/L | 31.7 (8.96) mg · hr/L | 29.4 (25.4-36.5) mg · hr/L
